Results published in PubChem BioAssay (NCI).
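Protocol summary: plate cells (96-well), add compound at 5 concentrations, incubate 48 h, interpolate endpoints linearly. At the TGI there is no net growth.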

What was measured:
Experiment in all cases: NCI tumour cell line growth inhibition, 48 h
UACC-257 melanoma = test system: UACC-257 melanoma
SF-268 CNS = test system: SF-268 CNS
NCI-H522 lung = test system: NCI-H522 lung
SK-MEL-2 melanoma = test system: SK-MEL-2 melanoma
BT-549 breast = test system: BT-549 breast
SK-OV-3 ovarian = test system: SK-OV-3 ovarian
U251 CNS = test system: U251 CNS
OVCAR-3 ovarian = test system: OVCAR-3 ovarian
MALME-3M melanoma = test system: MALME-3M melanoma
UO-31 renal = test system: UO-31 renal
HCC-2998 colon = test system: HCC-2998 colon
DU-145 prostate = test system: DU-145 prostate
ACHN renal = test system: ACHN renal
RXF 393 renal = test system: RXF 393 renal
MCF7 breast = test system: MCF7 breast
OVCAR-8 ovarian = test system: OVCAR-8 ovarian
OVCAR-4 ovarian = test system: OVCAR-4 ovarian
SR leukemia = test system: SR leukemia
MDA-MB-435 = test system: MDA-MB-435
HOP-92 NSCLC = test system: HOP-92 NSCLC
EKVX NSCLC = test system: EKVX NSCLC
IGROV1 ovarian = test system: IGROV1 ovarian
TK-10 renal = test system: TK-10 renal
RPMI-8226 leukemia = test system: RPMI-8226 leukemia
SW-620 colon = test system: SW-620 colon
CCRF-CEM leukemia = test system: CCRF-CEM leukemia
SNB-75 CNS = test system: SNB-75 CNS
HOP-62 NSCLC = test system: HOP-62 NSCLC
SF-295 CNS = test system: SF-295 CNS
M14 melanoma = test system: M14 melanoma
A549 NSCLC = test system: A549 NSCLC
786-0 renal = test system: 786-0 renal
PC-3 prostate = test system: PC-3 prostate
LOX IMVI melanoma = test system: LOX IMVI melanoma
UACC-62 melanoma = test system: UACC-62 melanoma
HL-60(TB) leukemia = test system: HL-60(TB) leukemia
SK-MEL-5 melanoma = test system: SK-MEL-5 melanoma
NCI-H226 lung = test system: NCI-H226 lung
NCI/ADR-RES ovarian = test system: NCI/ADR-RES ovarian
OVCAR-5 ovarian = test system: OVCAR-5 ovarian
A498 renal = test system: A498 renal
MDA-N = test system: MDA-N
HT29 colon = test system: HT29 colon
K-562 leukemia = test system: K-562 leukemia
SF-539 CNS = test system: SF-539 CNS
MDA-MB-231 breast = test system: MDA-MB-231 breast
KM12 colon = test system: KM12 colon
HCT-15 colon = test system: HCT-15 colon
HCT-116 colon = test system: HCT-116 colon
SN12C renal = test system: SN12C renal
HS 578T breast = test system: HS 578T breast
SNB-19 CNS = test system: SNB-19 CNS
CAKI-1 renal = test system: CAKI-1 renal
SK-MEL-28 melanoma = test system: SK-MEL-28 melanoma
NCI-H23 lung = test system: NCI-H23 lung
COLO 205 colon = test system: COLO 205 colon
T-47D breast = test system: T-47D breast
MOLT-4 leukemia = test system: MOLT-4 leukemia
NCI-H460 lung = test system: NCI-H460 lung

Compound `O=S(=O)(O)c1ccc(Nc2ccnc3cc(Cl)ccc23)cc1` has a TGI (UACC-257 melanoma) of over 100 µM, a TGI (SF-268 CNS) of over 100 µM and a TGI (NCI-H522 lung) of over 100 µM. The TGI (SK-MEL-2 melanoma) was over 100 µM, the TGI (BT-549 breast) was over 100 µM and the TGI (SK-OV-3 ovarian) was over 100 µM. The TGI (U251 CNS) was over 100 µM, the TGI (OVCAR-3 ovarian) was over 100 µM and the TGI (MALME-3M melanoma) was over 100 µM. It also gave a TGI (UO-31 renal) of over 100 µM, a TGI (HCC-2998 colon) of over 100 µM and a TGI (DU-145 prostate) of over 100 µM. For the same compound, the TGI (ACHN renal) was over 100 µM, the TGI (RXF 393 renal) was over 100 µM and the TGI (MCF7 breast) was over 100 µM. For the same compound, the TGI (OVCAR-8 ovarian) was over 100 µM, the TGI (OVCAR-4 ovarian) was over 100 µM and the TGI (SR leukemia) was over 100 µM. The TGI (MDA-MB-435) was over 100 µM, the TGI (HOP-92 NSCLC) was over 100 µM and the TGI (EKVX NSCLC) was over 100 µM. The TGI (IGROV1 ovarian) was over 100 µM, the TGI (TK-10 renal) was over 100 µM and the TGI (RPMI-8226 leukemia) was over 100 µM. For the same compound, the TGI (SW-620 colon) was over 100 µM, the TGI (CCRF-CEM leukemia) was over 100 µM and the TGI (SNB-75 CNS) was over 100 µM. It also gave a TGI (HOP-62 NSCLC) of over 100 µM, a TGI (SF-295 CNS) of over 100 µM and a TGI (M14 melanoma) of over 100 µM. The TGI (A549 NSCLC) was over 100 µM, the TGI (786-0 renal) was over 100 µM and the TGI (PC-3 prostate) was over 100 µM. It also gave a TGI (LOX IMVI melanoma) of over 100 µM, a TGI (UACC-62 melanoma) of over 100 µM and a TGI (HL-60(TB) leukemia) of over 100 µM. It also gave a TGI (SK-MEL-5 melanoma) of over 100 µM, a TGI (NCI-H226 lung) of over 100 µM and a TGI (NCI/ADR-RES ovarian) of over 100 µM. It also gave a TGI (OVCAR-5 ovarian) of over 100 µM, a TGI (A498 renal) of over 100 µM and a TGI (MDA-N) of over 100 µM. It also gave a TGI (HT29 colon) of over 100 µM, a TGI (K-562 leukemia) of over 100 µM and a TGI (SF-539 CNS) of over 100 µM. The TGI (MDA-MB-231 breast) was over 100 µM, the TGI (KM12 colon) was over 100 µM and the TGI (HCT-15 colon) was over 100 µM. The TGI (HCT-116 colon) was over 100 µM, the TGI (SN12C renal) was over 100 µM and the TGI (HS 578T breast) was over 100 µM. For the same compound, the TGI (SNB-19 CNS) was over 100 µM, the TGI (CAKI-1 renal) was over 100 µM and the TGI (SK-MEL-28 melanoma) was over 100 µM. It also gave a TGI (NCI-H23 lung) of over 100 µM, a TGI (COLO 205 colon) of over 100 µM and a TGI (T-47D breast) of over 100 µM. The TGI (MOLT-4 leukemia) was over 100 µM.
Compound `CCCC(=O)OC1CC(n2cc(F)c(=O)[nH]c2=O)OC1CO` (stereo unspecified) has a TGI (UACC-257 melanoma) of over 10 µM, a TGI (SF-268 CNS) of over 10 µM and a TGI (NCI-H522 lung) of over 10 µM. For the same compound, the TGI (SK-MEL-2 melanoma) was over 10 µM, the TGI (BT-549 breast) was over 10 µM and the TGI (SK-OV-3 ovarian) was over 10 µM. It also gave a TGI (U251 CNS) of over 10 µM, a TGI (OVCAR-3 ovarian) of over 10 µM and a TGI (MALME-3M melanoma) of over 10 µM. The TGI (UO-31 renal) was over 10 µM, the TGI (HCC-2998 colon) was over 10 µM and the TGI (DU-145 prostate) was over 3.23 µM. It also gave a TGI (ACHN renal) of over 10 µM, a TGI (RXF 393 renal) of over 10 µM and a TGI (MCF7 breast) of over 10 µM. For the same compound, the TGI (OVCAR-8 ovarian) was over 10 µM, the TGI (OVCAR-4 ovarian) was over 10 µM and the TGI (SR leukemia) was over 10 µM. It also gave a TGI (MDA-MB-435) of over 10 µM, a TGI (EKVX NSCLC) of over 10 µM and a TGI (IGROV1 ovarian) of over 10 µM. The TGI (TK-10 renal) was over 8.81 µM, the TGI (RPMI-8226 leukemia) was over 10 µM and the TGI (SW-620 colon) was over 10 µM. The TGI (CCRF-CEM leukemia) was over 10 µM, the TGI (SNB-75 CNS) was over 8.14 µM and the TGI (HOP-62 NSCLC) was over 10 µM. For the same compound, the TGI (SF-295 CNS) was over 10 µM, the TGI (M14 melanoma) was over 5.96 µM and the TGI (A549 NSCLC) was over 10 µM. The TGI (786-0 renal) was over 10 µM, the TGI (PC-3 prostate) was over 10 µM and the TGI (LOX IMVI melanoma) was over 10 µM. For the same compound, the TGI (UACC-62 melanoma) was over 10 µM, the TGI (NCI-H460 lung) was over 10 µM and the TGI (HL-60(TB) leukemia) was over 10 µM. The TGI (SK-MEL-5 melanoma) was 1.84 µM, the TGI (NCI-H226 lung) was over 10 µM and the TGI (NCI/ADR-RES ovarian) was over 10 µM. For the same compound, the TGI (OVCAR-5 ovarian) was over 10 µM, the TGI (A498 renal) was over 10 µM and the TGI (MDA-N) was over 10 µM. For the same compound, the TGI (HT29 colon) was over 10 µM, the TGI (K-562 leukemia) was over 10 µM and the TGI (SF-539 CNS) was 0.385 µM. The TGI (MDA-MB-231 breast) was over 10 µM, the TGI (KM12 colon) was over 10 µM and the TGI (HCT-15 colon) was over 10 µM. It also gave a TGI (HCT-116 colon) of over 10 µM, a TGI (SN12C renal) of over 10 µM and a TGI (HS 578T breast) of over 10 µM. It also gave a TGI (SNB-19 CNS) of over 10 µM, a TGI (CAKI-1 renal) of over 10 µM and a TGI (SK-MEL-28 melanoma) of over 10 µM. For the same compound, the TGI (NCI-H23 lung) was 1.11 µM, the TGI (COLO 205 colon) was over 10 µM and the TGI (T-47D breast) was over 10 µM. It also gave a TGI (MOLT-4 leukemia) of over 10 µM.
